Reference: PubChem BioAssay AID2060492 (Molecular Pharmacology Branch, DTP, NCI, 2025)

System: 695427-040-R-J1-PDC complex spheroids, viability percent T/C
Test: Anticancer human tumor 695427-040-R-J1-PDC patient-derived colon adenocarcinoma cell line growth inhibition [GQUAD]
Details: for IC50: curve of first compound; for viability, T/C: stronger effect = lower value
Outline: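 Viability of tumor cells grown as complex spheroids with endothelial and stromal cells, exposed to drug combinations. Top concentration at or near clinical Cmax (else 10 microM), diluted in half-log increments.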

[1] = second compound 0.0316 µM, first compound 0.0316 µM
[2] = second compound 0.0316 µM, first compound 0.1 µM
[3] = second compound 0.0316 µM, first compound 0.316 µM
[4] = second compound 0.0316 µM, first compound 1 µM
[5] = second compound 0.0316 µM, first compound 3.16 µM
[6] = second compound 0.0316 µM, first compound 10 µM
[7] = second compound 0.1 µM, first compound 0.0316 µM
[8] = second compound 0.1 µM, first compound 0.1 µM
[9] = second compound 0.1 µM, first compound 0.316 µM
[10] = second compound 0.1 µM, first compound 1 µM
[11] = second compound 0.1 µM, first compound 3.16 µM
[12] = second compound 0.1 µM, first compound 10 µM
[13] = second compound 0.316 µM, first compound 0.0316 µM
[14] = second compound 0.316 µM, first compound 0.1 µM
[15] = second compound 0.316 µM, first compound 0.316 µM
[16] = second compound 0.316 µM, first compound 1 µM
[17] = second compound 0.316 µM, first compound 3.16 µM
[18] = second compound 0.316 µM, first compound 10 µM
[19] = second compound 1 µM, first compound 0.0316 µM
[20] = second compound 1 µM, first compound 0.1 µM
[21] = second compound 1 µM, first compound 0.316 µM
[22] = second compound 1 µM, first compound 1 µM
[23] = second compound 1 µM, first compound 3.16 µM
[24] = second compound 1 µM, first compound 10 µM
[25] = second compound 3.16 µM, first compound 0.0316 µM
[26] = second compound 3.16 µM, first compound 0.1 µM
[27] = second compound 3.16 µM, first compound 0.316 µM
[28] = second compound 3.16 µM, first compound 1 µM
[29] = second compound 3.16 µM, first compound 3.16 µM
[30] = second compound 3.16 µM, first compound 10 µM
[31] = second compound 10 µM, first compound 0.0316 µM
[32] = second compound 10 µM, first compound 0.1 µM
[33] = second compound 10 µM, first compound 0.316 µM
[34] = second compound 10 µM, first compound 1 µM
[35] = second compound 10 µM, first compound 3.16 µM
[36] = second compound 10 µM, first compound 10 µM
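Further: spheroids exposed to compounds for seven days before readout.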

With `COc1cccc2c1C(=O)c1c(O)c3c(c(O)c1C2=O)CC(O)(C(=O)CO)CC3OC1CC(N)C(O)C(C)O1` (stereo not drawn) + Cc1cnc(CNC(=O)c2c(=O)c3ccc(N4CCCN(C)CC4)nc3n3c2sc2ccccc23)cn1 the IC50 (second compound 0.0316 µM) was 1.51 µM, the IC50 (second compound 0.1 µM) was 1.99 µM and the IC50 (second compound 0.316 µM) was 1.92 µM. For the same compound, the IC50 (second compound 1 µM) was 0.557 µM, the IC50 (second compound 3.16 µM) was under 0.0316 µM and the IC50 (second compound 10 µM) was under 0.0316 µM. It also gave a viability, T/C [1] of 96.5%, a viability, T/C [2] of 68% and a viability, T/C [3] of 70%. The viability, T/C [4] was 56.8%, the viability, T/C [5] was 38.7% and the viability, T/C [6] was 40.4%. It also gave a viability, T/C [7] of 86.3%, a viability, T/C [8] of 70.6% and a viability, T/C [9] of 85.3%. The viability, T/C [10] was 62.3%, the viability, T/C [11] was 45% and the viability, T/C [12] was 38.4%. The viability, T/C [13] was 72.2%, the viability, T/C [14] was 69.8% and the viability, T/C [15] was 64.9%. The viability, T/C [16] was 60.4%, the viability, T/C [17] was 42.4% and the viability, T/C [18] was 34.4%. The viability, T/C [19] was 60.2%, the viability, T/C [20] was 56.8% and the viability, T/C [21] was 59.6%. For the same compound, the viability, T/C [22] was 41%, the viability, T/C [23] was 34.2% and the viability, T/C [24] was 24.2%. For the same compound, the viability, T/C [25] was 43.8%, the viability, T/C [26] was 55.6% and the viability, T/C [27] was 48%. The viability, T/C [28] was 28.1%, the viability, T/C [29] was 28.9% and the viability, T/C [30] was 14.9%. It also gave a viability, T/C [31] of 32.1%, a viability, T/C [32] of 45% and a viability, T/C [33] of 43.5%. It also gave a viability, T/C [34] of 26.4%, a viability, T/C [35] of 20.2% and a viability, T/C [36] of 3.89%.
`C=CCn1c(=O)c2cnc(Nc3ccc(N4CCN(C)CC4)cc3)nc2n1-c1cccc(C(C)(C)O)n1` + Cc1[nH]c2ccc(F)cc2c1-c1nc2c3cccnc3c3ncccc3c2[nH]1 gave an IC50 (second compound 0.0316 µM) of 9.44 µM, an IC50 (second compound 0.1 µM) of 6.67 µM and an IC50 (second compound 0.316 µM) of 6.48 µM. For the same compound, the IC50 (second compound 1 µM) was 5.42 µM, the IC50 (second compound 3.16 µM) was 4.56 µM and the IC50 (second compound 10 µM) was 4.4 µM. It also gave a viability, T/C [1] of 102%, a viability, T/C [2] of 104% and a viability, T/C [3] of 94.3%. It also gave a viability, T/C [4] of 108%, a viability, T/C [5] of 105% and a viability, T/C [6] of 47.1%. For the same compound, the viability, T/C [7] was 114%, the viability, T/C [8] was 99.8% and the viability, T/C [9] was 103%. It also gave a viability, T/C [10] of 113%, a viability, T/C [11] of 99.3% and a viability, T/C [12] of 23%. It also gave a viability, T/C [13] of 105%, a viability, T/C [14] of 94.1% and a viability, T/C [15] of 95.6%. It also gave a viability, T/C [16] of 97.2%, a viability, T/C [17] of 95.6% and a viability, T/C [18] of 22.4%. It also gave a viability, T/C [19] of 81.6%, a viability, T/C [20] of 88.2% and a viability, T/C [21] of 93.1%. The viability, T/C [22] was 89.3%, the viability, T/C [23] was 79.8% and the viability, T/C [24] was 16%. The viability, T/C [25] was 72%, the viability, T/C [26] was 72% and the viability, T/C [27] was 70.3%. It also gave a viability, T/C [28] of 64.8%, a viability, T/C [29] of 70.7% and a viability, T/C [30] of 7.06%. It also gave a viability, T/C [31] of 75.4%, a viability, T/C [32] of 76.8% and a viability, T/C [33] of 71.5%. The viability, T/C [34] was 71.5%, the viability, T/C [35] was 67.8% and the viability, T/C [36] was 6.01%.
In the case of `CC[C@@]1(O)C(=O)OCc2c1cc1n(c2=O)Cc2cc3c(CN(C)C)c(O)ccc3nc2-1` + Cc1[nH]c2ccc(F)cc2c1-c1nc2c3cccnc3c3ncccc3c2[nH]1, the IC50 (second compound 0.0316 µM) is reported as over 0.316 µM, the IC50 (second compound 0.1 µM) is reported as over 0.316 µM and the IC50 (second compound 0.316 µM) is reported as over 0.316 µM. For the same compound, the IC50 (second compound 1 µM) was over 0.316 µM, the IC50 (second compound 3.16 µM) was over 0.316 µM and the IC50 (second compound 10 µM) was over 0.316 µM. The viability, T/C (second compound 0.0316 µM, first compound 0.000999 µM) was 108%, the viability, T/C (second compound 0.0316 µM, first compound 0.00316 µM) was 105% and the viability, T/C (second compound 0.0316 µM, first compound 0.00999 µM) was 109%. It also gave a viability, T/C [1] of 71.5%, a viability, T/C (second compound 0.0316 µM, first compound 0.0999 µM) of 98.3% and a viability, T/C [3] of 82.1%. For the same compound, the viability, T/C (second compound 0.1 µM, first compound 0.000999 µM) was 94.5%, the viability, T/C (second compound 0.1 µM, first compound 0.00316 µM) was 89.4% and the viability, T/C (second compound 0.1 µM, first compound 0.00999 µM) was 94.1%. It also gave a viability, T/C [7] of 78.7%, a viability, T/C (second compound 0.1 µM, first compound 0.0999 µM) of 94.2% and a viability, T/C [9] of 89.8%. It also gave a viability, T/C (second compound 0.316 µM, first compound 0.000999 µM) of 97.3%, a viability, T/C (second compound 0.316 µM, first compound 0.00316 µM) of 90.4% and a viability, T/C (second compound 0.316 µM, first compound 0.00999 µM) of 92.9%. The viability, T/C [13] was 88.2%, the viability, T/C (second compound 0.316 µM, first compound 0.0999 µM) was 101% and the viability, T/C [15] was 78.9%. It also gave a viability, T/C (second compound 1 µM, first compound 0.000999 µM) of 85.2%, a viability, T/C (second compound 1 µM, first compound 0.00316 µM) of 97.2% and a viability, T/C (second compound 1 µM, first compound 0.00999 µM) of 92.6%. The viability, T/C [19] was 95%, the viability, T/C (second compound 1 µM, first compound 0.0999 µM) was 91.3% and the viability, T/C [21] was 73.2%. The viability, T/C (second compound 3.16 µM, first compound 0.000999 µM) was 62.5%, the viability, T/C (second compound 3.16 µM, first compound 0.00316 µM) was 82.9% and the viability, T/C (second compound 3.16 µM, first compound 0.00999 µM) was 79.3%. The viability, T/C [25] was 72.4%, the viability, T/C (second compound 3.16 µM, first compound 0.0999 µM) was 84.4% and the viability, T/C [27] was 77.3%. For the same compound, the viability, T/C (second compound 10 µM, first compound 0.000999 µM) was 58.9%, the viability, T/C (second compound 10 µM, first compound 0.00316 µM) was 78.8% and the viability, T/C (second compound 10 µM, first compound 0.00999 µM) was 83.8%. It also gave a viability, T/C [31] of 78.2%, a viability, T/C (second compound 10 µM, first compound 0.0999 µM) of 89.5% and a viability, T/C [33] of 73.1%.
`COc1cccc2c1C(=O)c1c(O)c3c(c(O)c1C2=O)CC(O)(C(=O)CO)CC3OC1CC(N)C(O)C(C)O1` (stereo not drawn) + CN(C)c1ccc(Nc2c3ccc(NC(=O)CCN4CCCC4)cc3nc3cc(NC(=O)CCN4CCCC4)ccc23)cc1 gave an IC50 (second compound 0.0316 µM) of 9.64 µM, an IC50 (second compound 0.1 µM) of over 10 µM and an IC50 (second compound 0.316 µM) of over 10 µM. It also gave an IC50 (second compound 1 µM) of 9.98 µM, an IC50 (second compound 3.16 µM) of 8.08 µM and an IC50 (second compound 10 µM) of over 10 µM. It also gave a viability, T/C [1] of 97%, a viability, T/C [2] of 86.8% and a viability, T/C [3] of 90.3%. It also gave a viability, T/C [4] of 82.3%, a viability, T/C [5] of 63.1% and a viability, T/C [6] of 49.7%. For the same compound, the viability, T/C [7] was 102%, the viability, T/C [8] was 92% and the viability, T/C [9] was 85.9%. The viability, T/C [10] was 81.3%, the viability, T/C [11] was 66.6% and the viability, T/C [12] was 53.2%. It also gave a viability, T/C [13] of 93.2%, a viability, T/C [14] of 89.4% and a viability, T/C [15] of 90.2%. It also gave a viability, T/C [16] of 80.5%, a viability, T/C [17] of 63.8% and a viability, T/C [18] of 50.1%. The viability, T/C [19] was 90.6%, the viability, T/C [20] was 87.2% and the viability, T/C [21] was 81.5%. For the same compound, the viability, T/C [22] was 78.3%, the viability, T/C [23] was 69.3% and the viability, T/C [24] was 49.4%. The viability, T/C [25] was 97.1%, the viability, T/C [26] was 87.2% and the viability, T/C [27] was 87.6%. The viability, T/C [28] was 77.9%, the viability, T/C [29] was 65.5% and the viability, T/C [30] was 46%. It also gave a viability, T/C [31] of 89.2%, a viability, T/C [32] of 84.6% and a viability, T/C [33] of 81.8%. It also gave a viability, T/C [34] of 76.1%, a viability, T/C [35] of 68.2% and a viability, T/C [36] of 52.3%.
